Test results as given in patent publication US8765784B2, “Positive allosteric modulators of MGLUR2” (Merck Sharp & Dohme Corp., priority 2010, dated 2014).

Molecular target: T1, human mGluR2 (Homo sapiens, UniProt Q14416)
T1 construct: expressed in transfected cells
Test: FLIPR Ca2+ mobilization assay, potentiation of mGluR2
Type: cell-based
Settings: CHO dhfr- cells expressing recombinant human mGluR2 and Gα16; potentiation after EC20 glutamate (900 nM); read-out: IC50 (Representative FLIPR EC50 Values)
Experimental: Activity in potentiating the mGluR2 receptor may be determined as follows. The compounds of the present invention are tested in a fluorescence laser imaging plate reader (FLIPR) based assay. This assay is a common functional assay to monitor Ca^2+ mobilization in whole cells expressing recombinant receptor coupled with a promiscuous G-protein. CHO dhfr-cells stably expressing recombinant human mGluR2 and Gα16 loaded with Fluo-4 AM (Invitrogen, Carlsbad Calif.) are treated with dose responses of compounds and the Ca^2+ response is monitored on a FLIPR384 (Molecular Devices, Sunnydale Calif.) for agonist activity. The potentiation response is monitored after a subsequent addition of an EC20 concentration of glutamate (900 nM). The maximum calcium response at each concentration of compound for agonist or potentiation are plotted as dose responses and the curves are fitted with a four parameters logistic equation giving EC50 and Hill coefficient using the iterative non linear curve fitting software program.

T1 sequence (Q14416 19-872): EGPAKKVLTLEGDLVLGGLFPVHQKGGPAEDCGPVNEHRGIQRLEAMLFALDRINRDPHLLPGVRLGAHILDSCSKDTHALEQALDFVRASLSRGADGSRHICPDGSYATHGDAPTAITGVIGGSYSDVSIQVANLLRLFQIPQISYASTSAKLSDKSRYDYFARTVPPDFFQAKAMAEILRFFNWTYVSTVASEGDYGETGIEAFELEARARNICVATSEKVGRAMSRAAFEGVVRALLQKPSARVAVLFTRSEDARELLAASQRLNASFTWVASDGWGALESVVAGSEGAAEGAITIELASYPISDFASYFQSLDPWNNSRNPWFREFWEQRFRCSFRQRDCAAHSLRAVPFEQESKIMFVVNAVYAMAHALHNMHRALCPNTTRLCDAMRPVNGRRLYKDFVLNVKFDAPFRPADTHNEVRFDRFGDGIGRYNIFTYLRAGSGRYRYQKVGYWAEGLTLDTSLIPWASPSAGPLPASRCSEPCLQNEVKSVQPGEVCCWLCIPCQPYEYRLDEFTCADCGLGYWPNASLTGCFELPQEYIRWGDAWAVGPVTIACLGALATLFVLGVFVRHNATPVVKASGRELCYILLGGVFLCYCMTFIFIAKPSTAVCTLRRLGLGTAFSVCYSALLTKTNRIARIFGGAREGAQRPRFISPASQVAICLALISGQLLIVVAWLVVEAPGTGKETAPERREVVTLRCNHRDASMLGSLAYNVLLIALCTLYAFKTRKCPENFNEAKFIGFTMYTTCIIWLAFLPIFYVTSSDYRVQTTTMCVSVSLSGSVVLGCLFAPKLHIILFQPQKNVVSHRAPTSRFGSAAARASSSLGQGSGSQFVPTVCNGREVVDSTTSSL

SMILES	EC50 [nM]
Cn1c(=O)n(CC(C)(C)C)c2ccc(-c3cc(CN4CCS(=O)(=O)CC4)ccc3C#N)nc21 [Compound 21-11, 2-[1-(2,2-dimethylpropyl)-3-methyl-2-oxo-2,3-dihydro-1H-imidazo[4,5-b]pyridin-5-yl]-4-[(1,1-dioxidothiomorpholin-4-yl)methyl]benzonitrile]	34
CC(=O)N1CCN(Cc2ccc(C#N)c(-c3ccc4c(n3)n(C)c(=O)n4CC(C)(C)C)c2)CC1 [Compound 21-47, 4-[(4-acetylpiperazin-1-yl)methyl]-2-[1-(2,2-dimethylpropyl)-3-methyl-2-oxo-2,3-dihydro-1H-imidazo[4,5-b]pyridin-5-yl]benzonitrile]	74
COC(=O)NC(C)(C)c1ccc(C)c(-c2ccc3c(n2)n(C)c(=O)n3CC(C)(C)C)c1 [Compound 42-3, Methyl (1-{3-[1-(2,2-dimethylpropyl)-3-methyl-2-oxo-2,3-dihydro-1H-imidazo[4,5-b]pyridin-5-yl]-4-methylphenyl}-1-methylethyl)carbamate]	37
CC(=O)N1CCN(Cc2ccc(C)c(-c3ccc4c(n3)n(C)c(=O)n4CC(C)(C)C)c2)CC1 [Compound 51-9, 5-{5-[(4-acetylpiperazin-1-yl)methyl]-2-methylphenyl}-1-(2,2-dimethylpropyl)-3-methyl-1,3-dihydro-2H-imidazo[4,5-b]pyridin-2-one]	226
Cc1ccc(CN2CCN(S(C)(=O)=O)CC2)cc1-c1ccc2c(n1)n(C)c(=O)n2CC(C)(C)C [Compound 51-10, 1-(2,2-dimethylpropyl)-3-methyl-5-(2-methyl-5-{[4-(methylsulfonyl)piperazin-1-yl]methyl}phenyl)-1,3-dihydro-2H-imidazo[4,5-b]pyridin-2-one]	26
Cc1ccc(CN2CCN(S(C)(=O)=O)CC2)cc1-c1ccc2c(n1)n(C)c(=O)n2CC1CC1(F)F (stereo not shown) [Compound 56-4, 1-[(2,2-difluorocyclopropyl)methyl]-3-methyl-5-(2-methyl-5-{[4-(methylsulfonyl)piperazin-1-yl]methyl}phenyl)-1,3-dihydro-2H-imidazo[4,5-b]pyridin-2-one]	35
CC(O)C(=O)N1CCCC(c2cccc(-c3ccc4c(n3)n(C)c(=O)n4CC(C)(C)C)c2)C1 (stereo not shown) [Compound 65-6, 1-(2,2-dimethylpropyl)-5-{3-[1-(2-hydroxypropanoyl)piperidin-3-yl]phenyl}-3-methyl-1,3-dihydro-2H-imidazo[4,5-b]pyridin-2-one]	28
Cn1c(=O)n(CC(C)(C)C)c2ccc(-c3cccc(N4CCN(C(=O)c5ccon5)CC4)c3)nc21 [Compound 66-4, 1-(2,2-dimethylpropyl)-5-{3-[4-(isoxazol-3-ylcarbonyl)piperazin-1-yl]phenyl}-3-methyl-1,3-dihydro-2H-imidazo[4,5-b]pyridin-2-one]	45
Cc1ccc(CC(C)(C)O)cc1-c1ccc2c(n1)n(C)c(=O)n2CC(C)(C)C [Compound 81-3, 1-(2,2-dimethylpropyl)-5-[5-(2-hydroxy-2-methylpropyl)-2-methylphenyl]-3-methyl-1,3-dihydro-2H-imidazo[4,5-b]pyridin-2-one]	43

Now those with a lower EC50, led by results:

EC50 [nM]	SMILES
25	Cn1c(=O)n(CC(C)(C)C)c2ccc(-c3cccc(C(C)(C)O)c3F)nc21 [Compound 60-1, 1-(2,2-dimethylpropyl)-5-[2-fluoro-3-(1-hydroxy-1-methylethyl)phenyl]-3-methyl-1,3-dihydro-2H-imidazo[4,5-b]pyridin-2-one]
21	Cn1c(=O)n(CC(C)(C)C)c2ccc(-c3cc(CN4CCN(S(C)(=O)=O)CC4)ccc3C#N)nc21 [Compound 21-45, 2-[1-(2,2-dimethylpropyl)-3-methyl-2-oxo-2,3-dihydro-1H-imidazo[4,5-b]pyridin-5-yl]-4-{[4-(methylsulfonyl)piperazin-1-yl]methyl}benzonitrile]
11	Cn1c(=O)n(CC(C)(C)C)c2ccc(-c3cccc(CN4CCc5onc(O)c5C4)c3F)nc21 [Compound 61-4, 1-(2,2-dimethylpropyl)-5-{2-fluoro-3-[(3-hydroxy-6,7-dihydroisoxazolo[4,5-c]pyridin-5(4H)-yl)methyl]phenyl}-3-methyl-1,3-dihydro-2H-imidazo[4,5-b]pyridin-2-one]
8	Cn1c(=O)n(CC(C)(C)C)c2ccc(-c3cc(Oc4ccnc(C#N)c4)ccc3C#N)nc21 [Compound 16-3, 4-{4-cyano-3-[1-(2,2-dimethylpropyl)-3-methyl-2-oxo-2,3-dihydro-1H-imidazo[4,5-b]pyridin-5-yl]phenoxy}pyridine-2-carbonitrile]
